In patent publication US5861403A, “Purinylalkyl benzamide derivatives” (G. D. Searle & Co., priority 1996, dated 1999):

target: T1, Human Platelet Receptor (Homo sapiens, UniProt P25105); experiment: Human Platelet Receptor Binding (inhibition of specific binding of [^3 H]PAF to human platelet membrane preparation); details: 0.5 h, 0.75 nM [^3 H]PAF, human platelet membranes, read-out: Human Platelet Receptor, % @ 10 μM (percent displacement)
T1 construct: tissue Lifesource, Inc. (Glenview, Ill.); host or cells: human packed platelets, washed, broken by freeze-thaw; membrane pellet
T1 sequence (P25105 whole entry): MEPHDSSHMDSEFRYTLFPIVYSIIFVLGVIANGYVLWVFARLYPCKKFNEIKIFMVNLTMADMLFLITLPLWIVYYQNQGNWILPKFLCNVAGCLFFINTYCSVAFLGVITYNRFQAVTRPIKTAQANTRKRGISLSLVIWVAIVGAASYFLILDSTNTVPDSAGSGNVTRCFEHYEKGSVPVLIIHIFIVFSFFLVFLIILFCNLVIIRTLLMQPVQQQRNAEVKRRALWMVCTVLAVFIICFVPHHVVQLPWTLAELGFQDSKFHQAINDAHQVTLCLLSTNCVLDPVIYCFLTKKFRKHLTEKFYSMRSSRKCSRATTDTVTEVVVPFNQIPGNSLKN
Method: Assay B: Human Platelet Receptor Binding
Compounds of the invention were evaluated for their ability to inhibit specific binding of [^3 H]PAF to human platelet membrane preparation. Human packed platelets were obtained from Lifesource, Inc. (Glenview, Ill.) and washed 3 times with 10 mM Trizma pH 7.0, 2 mM EDTA (dipotassium salt), 150 mM KCl and then once with 10 mM Trizma 7.4, 20 mM CaCl2. The platelets were broken by freezing in a dry ice-ethanol bath, followed by thawing in 24° C. water baths. The preparation was centrifuged (40,000 x g, 20 minutes, […]) and the pellet suspended in 10 mM Trizma 7.4, 20 mM CaCl2, 5 mg/ml human albumin. Protein concentration in the platelet membrane preparation was determined by the Lowry method [O. H. Lowry et al., J. Biol. Chem., 193, 265-275 (1951)]. Aliquots of the membrane preparation were stored at -70° C. Each preparation was characterized for PAF receptor number and dissociation constant (Kd). In binding assays 5 μl of test compound, solubilized in DMSO, was added to polypropylene tubes along with 0.75 nM [^3 H]PAF and 200 mcl [[…]] of membranes and 95 μl 10 mM Trizma 7.4, 20 mM CaCl2, 5 mg/ml human albumin. Tubes were incubated for 30 minutes at 24° C. The incubation was terminated by adding 4 ml of ice-cold 10 mM Trizma pH 7.4, 20 mM CaCl2 and 20 mg/ml BSA prior to vacuum filtration using Whatman GF/C filters. Filters were prepared and counted in a scintillation counter. All DPM values (disintergrations per minute) were-corrected for background and isotope decay. Triplicate determinations for single doses were averaged. […] The IC50 values for the compounds of the invention were determined by the Allfit program using percent displacement data. (Allfit is a `basic` computer program for simultaneous curve fitting of a family of signoidal dose-response curves using the four parameter logistic equation.) Results are shown in Table I. In Table 1 "N.D." means not determined; "c-pent" means cyclopentyl; "c-hex" means cyclohexyl; "i-Pr" means isopropyl; "Me" means methyl; and "OMe" means methoxy.

inhibition at 10 µM	SMILES
44%	COc1cc(Cn2cnc3ncncc32)ccc1C(=O)N(C(C)C)C1CCCCC1 [Example 2B, N-cyclohexyl-2-methoxy-N-(1-methylethyl)-4-(7H-purin-7-ylmethyl)benzamide]
40%	COc1cc(Cn2cnc3ncnc-3c2)ccc1C(=O)N(C(C)C)C1CCCCC1 [Example 7, N-cyclohexyl-2-methoxy-N-(1-methylethyl)-4-(1H-purin-1-ylmethyl)benzamide]
19%	CC(C)N(C(=O)c1ccc(Cn2cnc3ncnc-3c2)cc1)C1CCCCC1 [Example 8, N-cyclohexyl-N-(1-methylethyl)-4-(1H-purin-1-ylmethyl)benzamide]
